Measured values from US20240300942A1, “SMALL MOLECULES FOR TREATEMENT OF CANCER” (VRise Therapeutics Inc., priority 2021, published 2024).

Legend:
NCI-H358 cell line = experiment: In vitro cell proliferation assay (CCK-8) in NCI-H358 cell line; type: cell-based; settings: Homo sapiens, 72 hours; for inhibition at 3 µM: TC1: Test Concentration of 3 uM; for inhibition at 10 µM: TC2: Test Concentration of 10 uM
Method: (§1) Growth inhibition assays is to be carried out using 10% FBS supplemented media. Cells are to be seeded at a desired concentration of 1,500-6,000 cells/well in a 96-well plate. Test compounds at a concentration range from 1 to 30 uM will be added after 24 hours. Growth will be assessed using the CCK-8 kit for measuring reduction at 0 h (prior to the addition of the test compound) and 72 hours after the addition of test compound. Absorbance read on a BIO-RAD iMark Microplate or any equivalent microplate reader at a wavelength of 450 nm. Data was analysed and percent inhibition due to the test compound compared to the control is calculated accordingly.

MIAPACA-2 cell line = experiment: In vitro cell proliferation assay (CCK-8) in MIAPACA-2 cell line; type: cell-based; settings: Homo sapiens, MIA PaCa-2, 72 hours; for inhibition at 3 µM: TC1: Test Concentration of 3 uM; for inhibition at 10 µM: TC2: Test Concentration of 10 uM
Method: as §1

| SMILES | inhibition at 3 µM (NCI-H358 cell line) [%] | inhibition at 10 µM (NCI-H358 cell line) [%] | inhibition at 3 µM (MIAPACA-2 cell line) [%] | inhibition at 10 µM (MIAPACA-2 cell line) [%] |
| --- | --- | --- | --- | --- |
| C=CC(=O)N1CCN(c2nc(OC[C@@H]3CCCN3C)c(C#N)c3c2CCN(c2cccc4cccc(Cl)c24)C3)CC1CC#N (single isomer, unassigned) [Ex 24] | 75 to 100 | 75 to 100 | 75 to 100 | 75 to 100 |
| C=CC(=O)N1CCN(c2nc(N3CC(C)OC(C)C3)c(C#N)c3c2CCN(c2cccc4ccccc24)C3)CC1 (stereo not shown) [Ex 52, 1-(4-acryloylpiperazin-1-yl)-3-(2,6-dimethylmorpholino)-6-(naphthalen-1-yl)-5,6,7,8-tetrahydro-2,6-naphthyridine-4-carbonitrile] |  | 75 to 100 |  | 75 to 100 |
| C=CC(=O)N1CCN(c2nc(N3CCN(C(=O)C=C)CC3)c3c(c2C#N)CN(c2cccc4sccc24)CC3)CC1 [Ex 47, 1,3-bis(4-acryloylpiperazin-1-yl)-6-(benzo[b]thiophen-4-yl)-5,6,7,8-tetrahydro-2,6-naphthyridine-4-carbonitrile] |  | 75 to 100 |  |  |
| C=CC(=O)N1CCN(c2nc(O)c(C#N)c3c2CCN(Cc2ccccc2)C3)CC1 [Ex 40, 1-(4-acryloylpiperazin-1-yl)-6-benzyl-3-hydroxy-5,6,7,8-tetrahydro-2,6-naphthyridine-4-carbonitrile] |  | ≤ 25 |  |  |
| C=CC(=O)N1CCN(c2nc(N3CCN(CC)CC3)c(C#N)c3c2CCN(c2cccc4ccccc24)C3)CC1 [Ex 54, 1-(4-acryloylpiperazin-1-yl)-3-(4-ethylpiperazin-1-yl)-6-(naphthalen-1-yl)-5,6,7,8-tetrahydro-2,6-naphthyridine-4-carbonitrile] |  | 75 to 100 |  | 75 to 100 |
| C=CC(=O)N1CCN(c2nc(-c3ccnc(F)c3)c(C#N)c3c2CCN(Cc2ccccc2)C3)CC1 [Ex 43, 1-(4-acryloylpiperazin-1-yl)-6-benzyl-3-(2-fluoropyridin-4-yl)-5,6,7,8-tetrahydro-2,6-naphthyridine-4-carbonitrile] |  | 25 to 50 |  |  |
| C=C(F)C(=O)N1CCN(c2nc(OC[C@@H]3CCCN3C)c(C#N)c3c2CCN(c2cccc4cccc(Cl)c24)C3)C[C@H]1CC#N [Ex 28, 6-(8-chloronaphthalen-1-yl)-1-((R)-3-(cyanomethyl)-4-(2-fluoroacryloyl)piperazin-1-yl)-3-(((S)-1-methylpyrrolidin-2-yl)methoxy)-5,6,7,8-tetrahydro-2,6-naphthyridine-4-carbonitrile] | 50 to 75 | 75 to 100 | 75 to 100 | 75 to 100 |
| C=CC(=O)N1CCN(c2nc(OC[C@@H]3CCCN3C)c(C#N)c3c2CCN(c2cccc4ccccc24)C3)CC1 [Ex 55, (S)-1-(4-acryloylpiperazin-1-yl)-3-((1-methylpyrrolidin-2-yl)methoxy)-6-(naphthalen-1-yl)-5,6,7,8-tetrahydro-2,6-naphthyridine-4-carbonitrile] |  | 75 to 100 |  | 75 to 100 |
| C=CC(=O)N1CCN(c2nc(N3CCOCC3)c(C#N)c3c2CCN(c2cccc4ccccc24)C3)CC1 [Ex 50, 1-(4-acryloylpiperazin-1-yl)-3-morpholino-6-(naphthalen-1-yl)-5,6,7,8-tetrahydro-2,6-naphthyridine-4-carbonitrile] |  | 75 to 100 |  |  |
| C=CC(=O)N1CCN(c2ncc(C#N)c3c2CCN(c2cccc4ccccc24)C3)CC1 [Ex 56, 1-(4-acryloylpiperazin-1-yl)-6-(naphthalen-1-yl)-5,6,7,8-tetrahydro-2,6-naphthyridine-4-carbonitrile] |  | ≤ 25 |  |  |
| C=CC(=O)N1CCN(c2nc(N3CCN(C)CC3)c(C#N)c3c2CCN(Cc2ccccc2)C3)[C@H](C)C1 [Ex 39, (R)-1-(4-acryloyl-2-methylpiperazin-1-yl)-6-benzyl-3-(4-methylpiperazin-1-yl)-5,6,7,8-tetrahydro-2,6-naphthyridine-4-carbonitrile] |  | 25 to 50 |  |  |
| C=CC(=O)N1CCN(c2nc(N3CCN(C(=O)CC)CC3)c(C#N)c3c2CCN(c2cccc4ccccc24)C3)CC1 [Ex 48, 1-(4-acryloylpiperazin-1-yl)-6-(naphthalen-1-yl)-3-(4-propionylpiperazin-1-yl)-5,6,7,8-tetrahydro-2,6-naphthyridine-4-carbonitrile] |  | 75 to 100 |  |  |
| C=CC(=O)N1CCN(c2nc(N3CCN(C)CC3)c(C#N)c3c2CCN(Cc2ccccc2)C3)CC1 [Ex 35, 1-(4-acryloylpiperazin-1-yl)-6-benzyl-3-(4-methylpiperazin-1-yl)-5,6,7,8-tetrahydro-2,6-naphthyridine-4-carbonitrile] |  | 25 to 50 |  |  |
| C=CC(=O)N1CCN(c2nc(N3CCN(C(=O)C=C)CC3)c3c(c2C#N)CN(Cc2ccccc2)CC3)CC1 [Ex 32, 1,3-bis(4-acryloylpiperazin-1-yl)-6-benzyl-5,6,7,8-tetrahydro-2,6-naphthyridine-4-carbonitrile] |  | 50 to 75 |  |  |
| C=CC(=O)N1CCN(c2nc(N3CCN(S(C)(=O)=O)CC3)c(C#N)c3c2CCN(c2cccc4ccccc24)C3)CC1 [Ex 53, 1-(4-acryloylpiperazin-1-yl)-3-(4-(methylsulfonyl)piperazin-1-yl)-6-(naphthalen-1-yl)-5,6,7,8-tetrahydro-2,6-naphthyridine-4-carbonitrile] |  | 75 to 100 |  | 75 to 100 |
| C=CC(=O)N1CCN(c2nc(N3CCN(C)CC3)c(C#N)c3c2CCN(C(=O)c2cccc4ccccc24)C3)CC1CC#N (stereo not shown) [Ex 37, 6-(1-naphthoyl)-1-(4-acryloyl-3-(cyanomethyl)piperazin-1-yl)-3-(4-methylpiperazin-1-yl)-5,6,7,8-tetrahydro-2,6-naphthyridine-4-carbonitrile] |  | 75 to 100 |  |  |
| C=CC(=O)N1CCN(c2nc(N3CCOCC3)c(C#N)c3c2CCN(Cc2ccccc2)C3)CC1 [Ex 34, 1-(4-acryloylpiperazin-1-yl)-6-benzyl-3-morpholino-5,6,7,8-tetrahydro-2,6-naphthyridine-4-carbonitrile] |  | 25 to 50 |  |  |
| C=CC(=O)N1CCN(c2nc(N3CCN(C(=O)CC)CC3)c3c(c2C#N)CN(c2cccc4ccccc24)CC3)CC1 [Ex 49, 3-(4-acryloylpiperazin-1-yl)-6-(naphthalen-1-yl)-1-(4-propionylpiperazin-1-yl)-5,6,7,8-tetrahydro-2,6-naphthyridine-4-carbonitrile] |  | 75 to 100 |  |  |
| C=CC(=O)N1CCN(c2nc(N3CCN(C(C)=O)CC3)c(C#N)c3c2CCN(c2cccc4ccccc24)C3)CC1 [Ex 51, 3-(4-acetylpiperazin-1-yl)-1-(4-acryloylpiperazin-1-yl)-6-(naphthalen-1-yl)-5,6,7,8-tetrahydro-2,6-naphthyridine-4-carbonitrile] |  | 50 to 75 |  |  |
| C=CC(=O)N1CCN(c2nc(OC[C@@H]3CCCN3C)c(C#N)c3c2CCN(c2cccc4cccc(Cl)c24)C3)CC1CC#N (mixture of isomers) [Ex 23, 1-(4-acryloyl-3-(cyanomethyl)piperazin-1-yl)-6-(8-chloronaphthalen-1-yl)-3-(((S)-1-methylpyrrolidin-2-yl)methoxy)-5,6,7,8-tetrahydro-2,6-naphthyridine-4-carbonitrile] | 75 to 100 | 75 to 100 | 75 to 100 | 75 to 100 |
| C=C(F)C(=O)N1CCN(c2nc(OC[C@@H]3CCCN3C)c(C#N)c3c2CCN(c2cccc4cccc(Cl)c24)C3)CC1CC#N (stereo partly drawn) [Ex 26, 6-(8-chloronaphthalen-1-yl)-1-(3-(cyanomethyl)-4-(2-fluoroacryloyl)piperazin-1-yl)-3-(((S)-1-methylpyrrolidin-2-yl)methoxy)-5,6,7,8-tetrahydro-2,6-naphthyridine-4-carbonitrile] | 25 to 50 | 75 to 100 |  |  |
| C=CC(=O)N1CCN(c2nc(N3CCCCC3)c(C#N)c3c2CCN(Cc2ccccc2)C3)CC1 [Ex 42, 1-(4-acryloylpiperazin-1-yl)-6-benzyl-3-(piperidin-1-yl)-5,6,7,8-tetrahydro-2,6-naphthyridine-4-carbonitrile] |  | 25 to 50 |  |  |
| C=CC(=O)N1CCN(c2nc(N3CCN(C)CC3)c(C#N)c3c2CCN(Cc2ccccc2)C3)CC1CC#N (stereo not shown) [Ex 36, 1-(4-acryloyl-3-(cyanomethyl)piperazin-1-yl)-6-benzyl-3-(4-methylpiperazin-1-yl)-5,6,7,8-tetrahydro-2,6-naphthyridine-4-carbonitrile] |  | 25 to 50 |  |  |
| C=C(F)C(=O)N1CCN(c2nc(N3CCN(C(=O)CC)CC3)c(C#N)c3c2CCN(c2cccc4ccccc24)C3)CC1 [Ex 57, 1-(4-(2-fluoroacryloyl)piperazin-1-yl)-6-(naphthalen-1-yl)-3-(4-propionylpiperazin-1-yl)-5,6,7,8-tetrahydro-2,6-naphthyridine-4-carbonitrile] |  | 75 to 100 |  |  |
| C=CC(=O)N1CCN(c2nc(N3CCN(C)CC3)c(C#N)c3c2CCN(Cc2ccccc2)C3)[C@@H](C)C1 [Ex 38, (S)-1-(4-acryloyl-2-methylpiperazin-1-yl)-6-benzyl-3-(4-methylpiperazin-1-yl)-5,6,7,8-tetrahydro-2,6-naphthyridine-4-carbonitrile] |  | ≤ 25 |  |  |
| C=CC(=O)N1CCN(c2nc(OCC3CCCN3C)c(C#N)c3c2CCN(Cc2ccccc2)C3)CC1 (stereo not shown) [Ex 45, 1-(4-acryloylpiperazin-1-yl)-6-benzyl-3-((1-methylpyrrolidin-2-yl)methoxy)-5,6,7,8-tetrahydro-2,6-naphthyridine-4-carbonitrile] |  | ≤ 25 |  |  |
